Assay [1] relates to Human pleural mesothelioma cells NCI-H226. The experiment in a line: Proliferation inhibition assay of human pleural mesothelioma cells NCI-H226 (CCK8). It counts as cell-based. To be noted: 72 h, 3 days incubation. An excerpt:
Experimental Example 1 Cell Anti-Proliferation Test
Proliferation Inhibition Assay of Human Pleural Mesothelioma Cells NCI-H226 by YAP-TEAD Inhibitor Compounds
Experimental materials and equipment: Human pleural mesothelioma cells NCI-H226 were purchased from Nanjing Cobioer Biosciences CO., LTD. RPMI-1640 medium (Bio-Channel), DMSO (dimethyl sulfoxide), CCK8 (WST-8) cell analysis kit (Beyotime), 0.25% EDTA-Tripsin (trypsin solution), 1×PBS (phosphate buffer, PH7.2), 96-well plate (Corning), fetal bovine serum (FBS), 10,000 U/mL penicillin-G/streptomycin, high-speed cryo-centrifuge (EPPENDORF 5810R), enzyme-linked immunoassay (Tecan Spark).
• A) Tumor cells were cultured in RPMI-1640 (containing 10% FBS and 100 U/mL penicillin-G/streptomycin) at 37° C., 5% CO^2 and saturated humidity until 80-90% density. • B) Removed the culture medium from 10 cm Petri dishes; • C) Rinsed the cells once with 10 ml 1×PBS; • D) Added 4 ml 0.25% EDTA-Tripsin into 37° C., 5% CO^2 incubator for trypsin digestion for 5 minutes, transferred to 15 ml centrifuge tube, centrifuged at 200 g for 5 minutes, discarded the supernatant to get cell precipitate; • E) Resuspend with 4 ml DMEM medium, count and adjust to 10,000 cells/ml. • F) Added cell suspension to 96-well plate with 100 μL per well volume and incubate overnight at 37° C., 5% CO^2 incubator.
• A) Preparation of gradient dilution solution of tested compounds: the test compounds were configured into 1 mM reservoir solution. Then 1.5 μl of the reservoir solution was dissolved in 1.5 ml of DMSO-free culture solution, and then a 3-fold serial gradient dilution was performed with 0.1% DMSO culture solution for a total of 9 concentrations, and the concentrations of the compounds after dilution were as follows: • 333.33 nM, 111.11 nM, 37.03 nM, 12.35 nM, 4.15 nM, 1.37 nM, 0.46 nM, 0.15 nM • B) After thorough mixing, 100 μL of culture compound solution was taken separately to replace the culture solution in the cell culture plate, with 4 replicate wells for each concentration; • C) The cells were transferred to the incubator and incubated for 3 days.
• A) Removed the cell culture plate and added 10 μl of CCK-8 (WST-8) solution per well in the biosafety cabinet. • B) Placed the cell culture plate back into the incubator and continued incubation for 3 hours. • C) Determined the absorbance value by selecting 450 nm on a TECAN enzyme-linked immunoassay detector.
The cell viability (% Cell Viability) was calculated using the following formula.
[formula] • A (dosing): absorbance of wells with cells, CCK8 solution and drug solution • A (blank): absorbance of wells with medium and CCK8 solution but no cells • A (0 dosing): absorbance of wells with cells, CCK8 solution and no drug solution • Cell viability: Cell proliferation viability or cytotoxicity viability IC50 values were obtained by curve fitting with GraphPad Prism 8 software.

In assay [2] the test system is YAP-TEAD. The experiment in a line: Nano luciferase method to detect YAP-TEAD inhibitor activity (293T cells transfected with pGL3B-8×GTiiC-nLuc-CMV-fLuc). Format: cell-based. As to conditions: Homo sapiens, HEK-293T, transfected 293T cells, 48 hours incubation, read-out: Nano Luciferas detection (IC50). An excerpt:
Experimental Example 2 Nano Luciferase Method to Detect YAP-TEAD Inhibitor Activity
(1) Experimental materials and equipment: 293T cells were purchased from Nanjing Cobioer Biosciences CO., LTD. DMEM medium (high sugar, phenol red free, Bio-Channel), DMSO (dimethyl sulfoxide), Lipo6000™ transfection reagent (Beyotime), pGL3B-8×GTiiC-nLuc-CMV-fLuc plasmid, 0.25% EDTA Tripsin (trypsin solution), 1×PBS (phosphate buffer, PH7.2), 96-well white cell culture plate (PerkinElmer), Fetal Bovine Serum (FBS), 10,000 U/mL penicillin-G/streptomycin, High-speed cryo-centrifuge (EPPENDORF 5810R), 37° C. CO^2 incubator, Vi-Cell® cell counter, Envision microplate reader (PerkinElmer).
Resuscitated 293T cells were inoculated into 10 cm petri dishes and placed in a 5% CO^2 incubator at a constant temperature of 37° C. To ensure transfection efficiency, cells in the logarithmic phase (cell density of about 50%-70%) should be used.
One day before transfection, cells in logarithmic phase were digested with Trypsin-EDTA, the reaction was terminated by adding medium, and the cell suspension was made by blowing and mixing with a pipette.
The cell concentration was determined using Vi-cell and diluted to a suspension of 5*10^5 cells per milliliter. Once the cell suspension was prepared, it was gently mixed and 10 ml of liquid was added to a 10 cm petri dish. […] The cells were incubated in a 5% CO^2 incubator at 37° C. for 1 day.
Take two clean and sterile centrifuge tubes, added 750 μL of opti-MEM Medium without antibiotics and serum respectively, then added […] of plasmid (pGL3B-8×GTiiC-nLuc-CMV-fLuc) to one of the tubes and gently blown with a pipette for mixing; the other tube was added with Lipo6000 transfection reagent and gently blown with a pipette for mixing. After standing at room temperature for 5 minutes, the culture medium containing DNA was gently added to the culture medium containing Lipo6000 transfection reagent, mixed by gently inverting the centrifuge tube, and stood at room temperature for 5 minutes.
The above mixture was added evenly dropwise to a 10-cm petri dish and replaced with fresh complete medium after 6 h of incubation.
After 1 day of transfection, Trypsin EDTA was used to digest the cells, medium was added to terminate the reaction, and a cell suspension was made by blowing and mixing with a pipette.
Cell concentration was determined using Vi-cell, and diluted to a suspension of 20,000 cells per milliliter.
After the cell suspension was prepared, it was gently mixed and 100 μL was added to each well in a 96-well plate so that the density of cells to be measured was 2000 per well.
The inoculated cell culture plates were incubated in an incubator, and the compounds in concentration gradients were added after about 24 hours.
The 10 mM compound reservoir solution was diluted to 50 μM with culture medium, and 50 μM compound solution was added sequentially to the third column of the deep-well plate, and 216 μL of culture medium containing 0.5% DMSO to the fourth to eleventh columns.
Gradient dilution: 100 μL of solution was pipetted from the third column and added to the fourth column, after mixing; another 100 μL of solution was pipetted from the fourth column and added to the fifth column, and the operation was repeated until the eleventh column.
Using a multichannel pipette, 25 μL of compound solution was pipetted from the deep-well plate and added to the 96-well culture plate, and each compound was repeated four times on the 96-well plate. A concentration gradient with a maximum concentration of 10,000 nM, 1:3.16, was eventually formed on the 96-well plate.
The 96-well plate was incubated in a 5% CO^2 incubator at a constant temperature of 37° C. for 48 hours, then removed and equilibrated at room temperature for 10 minutes.
100 μL of detection reagent was added to each well and placed on a horizontal shaker at low speed for 10 minutes to fully lyse the cells. […]

Where [3] appears, read: reference compounds of WO2009081259A1.

One may read the IC50 as the midpoint of a concentration-inhibition curve.

The structures appear in SMILES notation. Where two headings read alike, the source gives them in different places.

`FC(F)(F)c1ccc(Oc2ncccc2C2CCNCC2)cc1` [Reference compound 6, reference compound]: the IC50 in assay [1] (setting [3]) and in assay [2] (setting [3]) was more than 5000 nM in each case.

`C=CC(=O)N1C(C)CC(c2cccnc2Oc2ccc(C(F)(F)F)cc2)CC1C` (centres unmarked) [Compound T80]: the IC50 in assay [1] and in assay [2] was not above 100 nM throughout.

With `C=CC(=O)N1CC(c2cccnc2Nc2ccc(C)cc2)C1` [Compound T15], the IC50 in assay [1] and in assay [2] was not above 100 nM each time.

As for `C=CC(=O)N1CC=C(c2cccnc2Nc2ccc(C)cc2)CC1` [Compound T12], the IC50 in assay [1] and in assay [2] was not above 100 nM in each case.

Regarding `C=CC(=O)N1CCN(c2cccnc2Nc2ccc(C(F)(F)F)cc2)CC1` [Compound T36], the IC50 in assay [1] and in assay [2] was 100 to 1000 nM each time.

Regarding `C=CC(=O)N1CC(c2cccnc2Nc2ccc(C(F)(F)F)cc2)C1` [Compound T5], the IC50 in assay [1] and in assay [2] was 100 to 1000 nM each time.

Regarding `FC(F)(F)c1ccc(Nc2ncc(Cl)cc2C2CCNCC2)cc1` [Reference compound 4, reference compound], the concentration for half-maximal inhibition (IC50) in assay [1] (setting [3]) and in assay [2] (setting [3]) was more than 5000 nM throughout.

Consider `C=CC(=O)N1CCC(c2c(Cl)ccnc2Nc2ccc(C(F)(F)F)cc2)CC1` [Compound T29], for which the 50% inhibitory concentration (IC50) in assay [1] and in assay [2] was not above 100 nM in each case.

Turning to `C=CC(=O)N1CCC(c2cc(F)cnc2Nc2ccc(C(F)(F)F)cc2)CC1` [Compound T25], the IC50 in assay [1] and in assay [2] was not above 100 nM in each case.

In the case of `C=CC(=O)N1CCC(c2ccc(OC)nc2Nc2ccc(C(F)(F)F)cc2)CC1` [Compound T33], the half-inhibitory concentration (IC50) is 100 to 1000 nM in assay [1] and not above 100 nM in assay [2].

Regarding `C=CC(=O)N1CCC(c2ccccc2Nc2ccc(C(F)(F)F)cc2)CC1` [Compound T64], the IC50 in assay [1] and in assay [2] was not above 100 nM each time.

As to `C=CC(=O)N1CC=C(c2nccnc2Nc2ccc(C(F)(F)F)cc2)CC1` [Compound T17], the IC50 in assay [1] and in assay [2] was not above 100 nM in each case.

Consider `C=CC(=O)N1CCC(c2cc(-c3cn(C)cn3)cnc2Nc2ccc(C(F)(F)F)cc2)CC1` [Compound T62], for which the IC50 in assay [1] was 100 to 1000 nM; in assay [2] it was not above 100 nM.

Take `C=CC(=O)N1CCC(c2cccnc2Nc2ccc(S(F)(F)(F)(F)F)cc2)CC1` [Compound T6]: the IC50 in assay [1] and in assay [2] was not above 100 nM throughout.

As for `C=CC(=O)N1CCC(c2ccc(C(F)(F)F)nc2Nc2ccc(C(F)(F)F)cc2)CC1` [Compound T45], the 50% inhibitory concentration (IC50) in assay [1] lay in the range of 1000 to 5000 nM; in assay [2], 100 to 1000 nM.

With `C=CC(=O)N1CC=C(c2cccnc2Nc2ccc(C(F)(F)F)cc2)CC1` [Compound T2], the IC50 in assay [1] and in assay [2] was not above 100 nM in each case.

Regarding `C=CC(=O)N1CCC(c2ccc(C)nc2Nc2ccc(C(F)(F)F)cc2)CC1` [Compound T21], the IC50 in assay [1] and in assay [2] was not above 100 nM each time.

For the compound `C=CC(=O)N1CCC(c2cc(OC)cnc2Nc2ccc(C(F)(F)F)cc2)CC1` [Compound T34], the IC50 in assay [1] and in assay [2] was 100 to 1000 nM in each case.

For `Cc1cnc(Nc2ccc(C(F)(F)F)cc2)c(C2CCNCC2)c1` [Reference compound 1, reference compound], the half-maximal inhibitory concentration (IC50) in assay [1] (setting [3]) and in assay [2] (setting [3]) was more than 5000 nM throughout.

`C=CC(=O)N1CCC(c2cccnc2N(C)c2ccc(C(F)(F)F)cc2)CC1` [Compound T63]: the IC50 in assay [1] and in assay [2] was 100 to 1000 nM each time.

With `C=CC(=O)N1CCC(c2cc(C(F)(F)F)cnc2Nc2ccc(C(F)(F)F)cc2)CC1` [Compound T47], the IC50 in assay [1] and in assay [2] was 100 to 1000 nM in each case.

`C=CC(=O)N1CC=C(c2nccnc2Nc2ccc(C(F)(F)F)cc2)C1` [Compound T19]: the half-maximal inhibitory concentration (IC50) in assay [1] and in assay [2] was not above 100 nM throughout.

Turning to `C=CC(=O)N1CC=C(c2cccnc2Nc2ccc(S(F)(F)(F)(F)F)cc2)C1` [Compound T9], the IC50 in assay [1] and in assay [2] was not above 100 nM in each case.

For the compound `C=CC(=O)N1CCC(c2cc3ccccc3nc2Nc2ccc(C(F)(F)F)cc2)CC1` [Compound T65], the IC50 in assay [1] and in assay [2] was 100 to 1000 nM each time.

Take `C=CC(=O)N1CCC(c2ccc(F)nc2Nc2ccc(C(F)(F)F)cc2)CC1` [Compound T24]: the concentration for half-maximal inhibition (IC50) in assay [1] and in assay [2] was not above 100 nM throughout.

Consider `C=CC(=O)N1CCC(c2cc(-c3ccn(C)n3)cnc2Nc2ccc(C(F)(F)F)cc2)CC1` [Compound T54], for which the results for the IC50 in assay [1] and in assay [2] were 100 to 1000 nM and not above 100 nM, respectively.

Regarding `CC#CC(=O)N1CCC(c2cccnc2Nc2ccc(C(F)(F)F)cc2)CC1` [Compound T50], the IC50 in assay [1] and in assay [2] was 1000 to 5000 nM throughout.

As for `C=CC(=O)N1CCC(c2cc(-c3ccnn3C)cnc2Nc2ccc(C(F)(F)F)cc2)CC1` [Compound T60], the IC50 fell in the range of 1000 to 5000 nM in assay [1] and 100 to 1000 nM in assay [2].

In the case of `C=CC(=O)N1CCC(c2c(OC)ccnc2Nc2ccc(C(F)(F)F)cc2)CC1` [Compound T35], the half-maximal inhibitory concentration (IC50) in assay [1] and in assay [2] was 100 to 1000 nM throughout.

On to `C=CC(=O)N1CCC(c2cc(Cl)cnc2Nc2ccc(C(F)(F)F)cc2)CC1` [Compound T28], for which the IC50 in assay [1] and in assay [2] was not above 100 nM each time.

For `C=CC(=O)N1CCC(c2nc(C(F)(F)F)cnc2Nc2ccc(C(F)(F)F)cc2)CC1` [Compound T83], the IC50 in assay [1] and in assay [2] was not above 100 nM each time.

Source of the values: patent US20260152480A1, “POLYCYCLIC COMPOUND AND USE THEREOF” (TYK MEDICINES , INC., priority 2022, published 2026).
